The target in the assay is wild-type human cardiac sodium channel, hNav1.5 (Homo sapiens, UniProt Q14524). Put plainly: Late INa screening assay (automated whole cell patch clamp, PatchXpress). The following applies: HEK293 cells expressing hNav1.5, late INa generated with 10 μM Tefluthrin (or 50 nM ATX II); for inhibition at 1 µM: compound at 1 μM, read-out: LateINa_1 uM (percent block of late INa); for inhibition at 10 µM: compound at 10 μM, read-out: LateINa_10 uM (percent block of late INa). The class given is cell-based. In outline:
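Late sodium current through wild-type human hNav1.5 stably expressed in HEK293 cells (no beta subunits) was recorded by automated whole-cell patch clamp on a PatchXpress 7000A at 24-27° C. Late INa was induced with 10 μM Tefluthrin or 50 nM ATX II. Cells were stepped from −120 mV to −20 mV for 250 ms at 0.1 Hz, and percent block was normalized to current in Na-free extracellular solution.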
For orientation: The patch-clamp technique gives a direct electrical read-out from membranes.

wild-type human cardiac sodium channel, hNav1.5, sequence (Q14524 whole entry): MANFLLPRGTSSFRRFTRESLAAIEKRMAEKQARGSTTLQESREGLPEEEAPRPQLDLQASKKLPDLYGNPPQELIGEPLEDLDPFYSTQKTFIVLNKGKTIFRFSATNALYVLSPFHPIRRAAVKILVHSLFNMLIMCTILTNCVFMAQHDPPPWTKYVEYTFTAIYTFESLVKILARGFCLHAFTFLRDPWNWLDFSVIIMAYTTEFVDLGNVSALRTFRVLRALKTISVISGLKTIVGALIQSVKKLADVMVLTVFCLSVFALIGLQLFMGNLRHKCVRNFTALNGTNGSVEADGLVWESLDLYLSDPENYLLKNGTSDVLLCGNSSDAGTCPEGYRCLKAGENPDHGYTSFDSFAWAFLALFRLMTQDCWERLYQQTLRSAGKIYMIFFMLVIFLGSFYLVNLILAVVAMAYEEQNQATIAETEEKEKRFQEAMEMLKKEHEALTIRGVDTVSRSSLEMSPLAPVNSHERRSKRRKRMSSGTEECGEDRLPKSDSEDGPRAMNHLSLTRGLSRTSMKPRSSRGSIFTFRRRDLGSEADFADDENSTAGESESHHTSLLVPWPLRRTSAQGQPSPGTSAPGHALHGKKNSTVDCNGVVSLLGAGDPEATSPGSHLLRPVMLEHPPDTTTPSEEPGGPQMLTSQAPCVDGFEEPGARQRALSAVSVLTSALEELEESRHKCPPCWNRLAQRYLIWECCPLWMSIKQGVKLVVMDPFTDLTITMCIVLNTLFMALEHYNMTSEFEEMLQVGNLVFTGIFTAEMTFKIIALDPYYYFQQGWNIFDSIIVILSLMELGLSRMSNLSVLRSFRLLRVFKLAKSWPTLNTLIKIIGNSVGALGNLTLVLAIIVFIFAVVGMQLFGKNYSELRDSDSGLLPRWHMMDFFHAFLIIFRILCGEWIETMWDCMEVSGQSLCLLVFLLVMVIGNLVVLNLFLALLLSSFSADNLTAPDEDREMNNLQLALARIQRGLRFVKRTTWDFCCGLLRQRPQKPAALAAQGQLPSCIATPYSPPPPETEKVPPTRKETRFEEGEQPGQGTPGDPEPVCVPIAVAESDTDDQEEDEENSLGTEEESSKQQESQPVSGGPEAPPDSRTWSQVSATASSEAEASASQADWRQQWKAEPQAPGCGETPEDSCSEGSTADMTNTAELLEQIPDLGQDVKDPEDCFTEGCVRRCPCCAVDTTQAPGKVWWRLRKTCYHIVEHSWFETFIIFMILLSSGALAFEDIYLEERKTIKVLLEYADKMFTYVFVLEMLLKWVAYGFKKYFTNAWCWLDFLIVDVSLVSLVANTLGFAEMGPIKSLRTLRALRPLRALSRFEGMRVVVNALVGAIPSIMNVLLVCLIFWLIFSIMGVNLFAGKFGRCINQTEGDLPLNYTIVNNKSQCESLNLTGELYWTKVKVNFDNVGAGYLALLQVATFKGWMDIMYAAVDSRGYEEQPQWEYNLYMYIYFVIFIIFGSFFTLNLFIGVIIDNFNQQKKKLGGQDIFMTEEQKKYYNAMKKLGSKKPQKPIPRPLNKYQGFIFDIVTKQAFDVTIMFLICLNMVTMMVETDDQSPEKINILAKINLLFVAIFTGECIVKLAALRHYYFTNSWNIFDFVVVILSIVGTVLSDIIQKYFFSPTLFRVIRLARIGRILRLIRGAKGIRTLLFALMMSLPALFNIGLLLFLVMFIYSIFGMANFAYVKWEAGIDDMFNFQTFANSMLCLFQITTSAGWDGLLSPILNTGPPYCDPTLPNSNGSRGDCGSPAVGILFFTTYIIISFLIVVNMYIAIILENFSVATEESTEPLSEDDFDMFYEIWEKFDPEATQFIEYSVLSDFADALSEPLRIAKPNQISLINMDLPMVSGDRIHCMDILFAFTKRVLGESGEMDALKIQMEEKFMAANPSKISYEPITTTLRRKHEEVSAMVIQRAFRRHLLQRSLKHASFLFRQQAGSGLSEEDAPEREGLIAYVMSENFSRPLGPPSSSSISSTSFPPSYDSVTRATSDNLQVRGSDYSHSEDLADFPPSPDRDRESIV

For `FC(F)(F)c1nnc2ccc(-c3ccc(Oc4ccc(Cl)cc4)cc3)cn12` [BHN-65, 6-[4-(4-chlorophenoxy)phenyl]-3-(trifluoromethyl)[1,2,4]triazolo[4,3-a]pyridine], the inhibition at 1 µM was determined as 55.6% and the inhibition at 10 µM turned out to be 85.7%. `c1ccc(Oc2ccc(-c3ccc4nnc(-c5ccc(-c6nn[nH]n6)cc5)n4n3)cc2)cc1` [BHN-50, 6-(4-phenoxyphenyl)-3-[4-(2H-tetrazol-5-yl)phenyl][1,2,4]triazolo[4,3-b]pyridazine]: the inhibition at 10 µM was 31%. For the compound `CCNc1nnc2ccc(-c3ccc(Oc4ccccc4)cc3)cn12` [BHN-334, N-ethyl-6-(4-phenoxyphenyl)[1,2,4]triazolo[4,3-a]pyridin-3-amine], the inhibition at 10 µM was determined as 40.6%. As to `CC(O)C(F)(F)c1nnc2ccc(-c3ccc(OC(F)(F)F)cc3)cn12` (centres unmarked) [BHN-165, 1,1-difluoro-1-{6-[4-(trifluoromethoxy)phenyl][1,2,4]triazolo[4,3-a]pyridin-3-yl}propan-2-ol], the inhibition at 1 µM stood at 28.1%.

As for `CC#CCOC(F)(F)c1nnc2ccc(-c3ccc(OC(F)(F)F)cc3)cn12` [BHN-293, 3-[(but-2-yn-1-yloxy)(difluoro)methyl]-6-[4-(trifluoromethoxy)phenyl][1,2,4]triazolo[4,3-a]pyridine], the inhibition at 1 µM amounted to 80.6%.

In the case of `Cc1nn(-c2ccccc2)nc1COC(F)(F)c1nnc2ccc(-c3ccc(OC(F)(F)F)cc3)cn12` [BHN-300, 3-{difluoro[(5-methyl-2-phenyl-2H-1,2,3-triazol-4-yl)methoxy]methyl}-6-[4-(trifluoromethoxy)phenyl][1,2,4]triazolo[4,3-a]pyridine], the inhibition at 1 µM came out at 63%. `FC(F)(F)c1cc(-c2ccc3nnc(C(F)(F)F)n3c2)ccc1Cl` [BHN-10, 6-[4-chloro-3-(trifluoromethyl)phenyl]-3-(trifluoromethyl)[1,2,4]triazolo[4,3-a]pyridine]: the inhibition at 10 µM worked out at 51.2%. On to `CC(C)(C)c1nnc2ccc(-c3ccc(Oc4ccccc4)cc3)nn12` [BHN-35, 3-tert-butyl-6-(4-phenoxyphenyl)[1,2,4]triazolo[4,3-b]pyridazine], for which the inhibition at 10 µM was found to be 68.6%. Consider `Cc1ccc(C)c(OCC(O)COCC(F)(F)c2nnc3ccc(-c4ccc(OC(F)(F)F)cc4)cn23)c1` (centres unmarked) [BHN-274, 1-(2,2-difluoro-2-{6-[4-(trifluoromethoxy)phenyl][1,2,4]triazolo[4,3-a]pyridin-3-yl}ethoxy)-3-(2,5-dimethylphenoxy)propan-2-ol], for which the inhibition at 1 µM worked out at 38.9%. For `Cc1nc(COC(F)(F)c2nnc3ccc(-c4ccc(OC(F)(F)F)cc4)cn23)c(C)o1` [BHN-228, 3-{[(2,5-dimethyl-1,3-oxazol-4-yl)methoxy](difluoro)methyl}-6-[4-(trifluoromethoxy)phenyl][1,2,4]triazolo[4,3-a]pyridine], the inhibition at 1 µM stood at 73%.

Take `Cn1nc(C2CC2)cc1COC(F)(F)c1nnc2ccc(-c3ccc(OC(F)(F)F)cc3)cn12` [BHN-266, 3-{[(3-cyclopropyl-1-methyl-1H-pyrazol-5-yl)methoxy](difluoro)methyl}-6-[4-(trifluoromethoxy)phenyl][1,2,4]triazolo[4,3-a]pyridine]: the inhibition at 1 µM was found to be 50.2%. For `NC(=O)c1nnc2ccc(-c3ccc(OC(F)(F)F)cc3)cn12` [BHN-265, 6-[4-(trifluoromethoxy)phenyl][1,2,4]triazolo[4,3-a]pyridine-3-carboxamide], the inhibition at 1 µM came out at 15.3%. As to `CN1CCN(Cc2cc(-c3ccc4nnc(C(F)(F)F)n4c3)ccc2OC(F)(F)F)CC1` [BHN-81, 6-{3-[(4-methylpiperazin-1-yl)methyl]-4-(trifluoromethoxy)phenyl}-3-(trifluoromethyl)[1,2,4]triazolo[4,3-a]pyridine], the inhibition at 10 µM is 30.3%. In the case of `FC(F)(F)Oc1ccc(-c2ccc3nnc(C(F)(F)OCc4ccccc4-c4ccc(C5CC5)nc4)n3c2)cc1` [BHN-325, 3-[{[2-(6-cyclopropylpyridin-3-yl)benzyl]oxy}(difluoro)methyl]-6-[4-(trifluoromethoxy)phenyl][1,2,4]triazolo[4,3-a]pyridine], the inhibition at 1 µM was 68.3%. Still for that read-out and setting: to `CC1(C)Cc2cccc(COC(F)(F)c3nnc4ccc(-c5ccc(OC(F)(F)F)cc5)cn34)c2O1` [BHN-321, 3-{[(2,2-dimethyl-2,3-dihydro-1-benzofuran-7-yl)methoxy](difluoro)methyl}-6-[4-(trifluoromethoxy)phenyl][1,2,4]triazolo[4,3-a]pyridine] belongs 65.6%. As to `COCc1c(-c2ccc(OC(F)(F)F)cc2)ccc2nnc(C(F)(F)F)n12` [BHN-277, 5-(methoxymethyl)-6-[4-(trifluoromethoxy)phenyl]-3-(trifluoromethyl)[1,2,4]triazolo[4,3-a]pyridine], the inhibition at 1 µM came to 38%. Regarding `FC(F)(F)Oc1ccc(-c2ccc3nnc(C(F)(F)F)n3c2)cc1` [BHN-335, 6-[4-(trifluoromethoxy)phenyl]-3-(trifluoromethyl)[1,2,4]triazolo[4,3-a]pyridine], the inhibition at 10 µM is 87.7%. For `NC(=O)c1ccc(-c2nnc3ccc(-c4ccc(OC(F)(F)F)cc4)cn23)cc1` [BHN-79, 4-{6-[4-(trifluoromethoxy)phenyl][1,2,4]triazolo[4,3-a]pyridin-3-yl}benzamide], the inhibition at 10 µM is 19.3%.

Regarding `Cc1cc(COC(F)(F)c2nnc3ccc(-c4ccc(OC(F)(F)F)cc4)cn23)c2ccccc2n1` [BHN-289, 4-[(difluoro{6-[4-(trifluoromethoxy)phenyl][1,2,4]triazolo[4,3-a]pyridin-3-yl}methoxy)methyl]-2-methylquinoline], the inhibition at 1 µM turned out to be 47.9%.

Turning to `FC(F)(F)Oc1ccc(-c2ccc3nnc(C(F)(F)OCc4cc(-c5ccccc5)on4)n3c2)cc1` [BHN-298, 3-{difluoro[(5-phenyl-1,2-oxazol-3-yl)methoxy]methyl}-6-[4-(trifluoromethoxy)phenyl][1,2,4]triazolo[4,3-a]pyridine], the inhibition at 1 µM was 70.3%. Turning to `FC(F)(F)c1ccc(C#Cc2ccc3nnc(C(F)(F)F)n3c2)cc1` [BHN-177, 3-(trifluoromethyl)-6-{[4-(trifluoromethyl)phenyl]ethynyl}[1,2,4]triazolo[4,3-a]pyridine], the inhibition at 1 µM was 23.6%.

As for `CS(=O)(=O)Nc1ccc(-c2nnc3ccc(-c4ccc(OC(F)(F)F)cc4)cn23)cc1` [BHN-75, N-(4-{6-[4-(trifluoromethoxy)phenyl][1,2,4]triazolo[4,3-a]pyridin-3-yl}-phenyl)methanesulfonamide], the inhibition at 10 µM worked out at 30.1%. For the compound `FC(F)(F)c1ccc(-c2ccc3nnc(C(F)(F)OCc4cc(-c5ccccc5)on4)n3c2)cn1` [BHN-319, 3-{difluoro[(5-phenyl-1,2-oxazol-3-yl)methoxy]methyl}-6-[6-(trifluoromethyl)pyridin-3-yl][1,2,4]triazolo[4,3-a]pyridine], the inhibition at 1 µM turned out to be 30.5%. In the case of `CC(C)(O)COCC(F)(F)c1nnc2ccc(-c3ccc(OC(F)(F)F)cc3)cn12` [BHN-205, 1-(2,2-difluoro-2-{6-[4-(trifluoromethoxy)phenyl][1,2,4]triazolo[4,3-a]pyridin-3-yl}ethoxy)-2-methylpropan-2-ol], the inhibition at 1 µM came out at 25.2%.

For `FC(F)(F)c1nnc2ccc(-c3ccc(Oc4ccccc4)cc3)cn12` [BHN-332, 6-(4-phenoxyphenyl)-3-(trifluoromethyl)[1,2,4]triazolo[4,3-a]pyridine], the inhibition at 10 µM came to 83.5%. Regarding `CC(C)Cc1nc(COC(F)(F)c2nnc3ccc(-c4ccc(OC(F)(F)F)cc4)cn23)no1` [BHN-207, 3-(difluoro{[5-(2-methylpropyl)-1,2,4-oxadiazol-3-yl]methoxy}methyl)-6-[4-(trifluoromethoxy)phenyl][1,2,4]triazolo[4,3-a]pyridine], the inhibition at 1 µM came out at 60.3%.

For the compound `COc1cc(C(F)(F)F)ccc1-c1ccc2nnc(C(F)(F)F)n2c1` [BHN-105, 6-[2-methoxy-4-(trifluoromethyl)phenyl]-3-(trifluoromethyl)[1,2,4]triazolo[4,3-a]pyridine], the inhibition at 1 µM was 49.3%.

For `CC(OC(F)(F)c1nnc2ccc(-c3ccc(OC(F)(F)F)cc3)cn12)c1cnc2ccccc2c1` (centres unmarked) [BHN-282, 3-[1-(difluoro{6-[4-(trifluoromethoxy)phenyl][1,2,4]triazolo[4,3-a]pyridin-3-yl}methoxy)ethyl]quinoline], the inhibition at 1 µM was determined as 62.7%. On to `N#CC1(c2ccc(-c3ccc4nnc(C(F)(F)F)n4c3)cc2)CC1` [BHN-195, 1-{4-[3-(trifluoromethyl)[1,2,4]triazolo[4,3-a]pyridin-6-yl]phenyl}cyclopropanecarbonitrile], for which the inhibition at 1 µM was determined as 47.3%. On the same count and under the same terms, with `FC(F)(F)c1nnc2ccc(-c3cccc4ccccc34)cn12` [BHN-120, 6-(naphthalen-1-yl)-3-(trifluoromethyl)[1,2,4]triazolo[4,3-a]pyridine] the figure was 20.4%.

In the case of `FC(F)(F)c1nnc2ccc(-c3ccc(Sc4ccccc4)cc3)cn12` [BHN-119, 6-[4-(phenylsulfanyl)phenyl]-3-(trifluoromethyl)[1,2,4]triazolo[4,3-a]pyridine], the inhibition at 1 µM came to 70.5%.

The values are drawn from patent publication US8952034B2, “Fused heterocyclic compounds as ion channel modulators” (Gilead Sciences, Inc., priority 2009, dated 2015).
